The test system of test [1] is KATOIII stomach cancer cells. The experiment in a line: In vitro cell viability, KATOIII. The test is classed as cell-based, human. Particulars: antagonist 5 μM for 72 h, cell proliferation assay; MIA602 = 1. The procedure:
(§1) The inhibitory effects of the various synthesized GHRH antagonists were tested in cell proliferation assays in various human cancer cell lines including stomach cancer (KATOIII, N87), colon cancer (HT-29), urothelial cancer (J82, RT4), pancreatic cancer (PANC-1, CFPAC-1), prostatic cancer (PC3), breast cancer (MX-1, HCC1806), ovarian cancer (SK-OV-3, OVCAR-3) and lung cancer (HCC827, H460).
(§2) Cell culture. Human cancer cell lines including pancreatic (PANC-1 and CFPAC-1), lung (HCC827 and H460), stomach (NCI-N87 and KATOIII), urothelial (J82, RT4), prostatic (PC3), breast (MX-1 and HCC 1806), colorectal (HT-29), and ovarian (SK-OV-3 and OVCAR-3) were obtained from the American Type Culture Collection (ATCC) and cultured at 37° C. in a humidified 95% air/5% CO2 atmosphere in the medium recommended by ATCC.
(§3) In vitro cell viability. Cell viability was analyzed as follows: cancer cells including pancreatic (PANC-1 and CFPAC-1), lung (HCC827 and H460), stomach (NCI-N87 and KATOIII), urothelial (J82, RT4), prostatic (PC3) and breast (MX-1 and HCC 1806), colorectal (HT-29) and ovarian (SK-OV-3 and OVCAR-3) were grown on 96 well plates to ˜60% confluence, the cells were starved for 24 h in culture medium containing 0.5% FBS. Cells were then treated with GHRH antagonists MIA602 AVR compounds at concentrations of 1, 2.5 or 5 μM, or vehicle (0.1% DMSO) in quintuplicates for 72 hours. The medium was replaced every 48 hours. Cell viability was measured using CellTiter 96 aqueous one solution kit (Promega). Inhibitory effects of tested AVR compounds in comparison to that of MIA602 are presented as inhibitory potency.
(§4) Inhibitory effects of selected AVR compounds in comparison to that of MIA602 are presented as inhibitory potency (e.g., percentage of inhibition). […] The cell lines tested including lung cancer HCC827 (FIG. 2A), pancreatic cancer CFPAC-1 (FIG. 2B), stomach cancer N87 (FIG. 2C), colon cancer HT-29 (FIG. 2D), breast cancers MX-1 and HCC1806 (FIGS. 2 E, F). Based on the results of cell proliferation assay after cancer cells were treated with antagonist at concentration of 5 μM for 72H, the relative inhibitory potency of AVR antagonists in comparison to MIA-602 is summarized in Table 3 A and B. Over 60 AVR compounds were tested in 12 cancer cell lines.

The target of test [2] is T1, membrane GHRH-receptors on human anterior pituitary cells (Homo sapiens, UniProt Q02643).
T1 construct: Human pituitary was purchased from the National Hormone and Peptide Program; tissue National Hormone and Peptide Program; host or cells: human pituitary (membrane fractions)
T1 sequence (Q02643 23-423): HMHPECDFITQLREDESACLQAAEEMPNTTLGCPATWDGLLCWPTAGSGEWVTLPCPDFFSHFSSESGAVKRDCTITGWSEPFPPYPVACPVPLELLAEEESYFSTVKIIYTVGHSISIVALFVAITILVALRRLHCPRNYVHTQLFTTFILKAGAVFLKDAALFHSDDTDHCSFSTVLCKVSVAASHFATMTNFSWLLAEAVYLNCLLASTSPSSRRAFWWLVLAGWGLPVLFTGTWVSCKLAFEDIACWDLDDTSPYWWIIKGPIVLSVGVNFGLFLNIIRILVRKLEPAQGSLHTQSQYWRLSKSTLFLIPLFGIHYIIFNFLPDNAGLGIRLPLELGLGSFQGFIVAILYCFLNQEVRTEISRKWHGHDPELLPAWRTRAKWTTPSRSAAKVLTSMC
The experiment in a line: Receptor binding, displacement of 125I-[His1,Nle27]-hGH-RH(1-32)NH2 on human pituitary membranes. As to the method:
Receptor binding affinities in vitro. Preparation of human pituitary membrane fractions and receptor binding of analogs of GH-RH were performed (Halmos G, Rekasi Z, Szoke B, Schally A V. (1993) Receptor 3:87-97). Human pituitary was purchased from the National Hormone and Peptide Program. […] Relative affinities compared to hGH-RH(1-29)NH2 were calculated as the ratio of IC50 (dose causing 50% inhibition of specific binding to receptors) of the tested peptides to the IC50 of hGH-RH(1-29)NH2. The values were calculated from technical duplicate tubes.
Nineteen new AVR analogs of GHRH were tested in the receptor binding assay. Table 6 presents the IC50 values of GHRH antagonists to membrane GHRH-receptors binding on human anterior pituitary cells.

The test system of test [3] is CFPAC-1 pancreatic cancer cells. The experiment in a line: In vitro cell viability, CFPAC-1. The test is classed as cell-based, human. To be noted: antagonist 5 μM for 72 h, cell proliferation assay; MIA602 = 1. As to the method:
as §1, §2, §3, §4
(§5) Based on the results of cell proliferation assay after cancer cells were treated with antagonist at concentration of 5 µM for 72H, * at concentration of 2 µM for 72 H.

For the next test, the system named is HCC827 lung cancer cells. The experiment in a line: In vitro cell viability, HCC827. The test is classed as cell-based, human. Particulars: antagonist 5 μM for 72 h, cell proliferation assay; MIA602 = 1. As to the method:
as §1, §2, §3, §4, §5

“Also recorded” adds a separate entry of the source. Like-named read-outs stand apart in the source and are kept apart here. Non-standard residues stand in square brackets, D forms with d. Residues, ends and D or L forms follow the SMILES beside them. *: point of attachment. Phenylacetyl(2,3,4,5,6-F5) = O=C(Cc1c(F)c(F)c(F)c(F)c1F)*; Phe(F5) = N[C@@H](Cc1c(F)c(F)c(F)c(F)c1F)C(=O)O; Phe(4-Cl) = N[C@@H](Cc1ccc(Cl)cc1)C(=O)O; hArg = N=C(N)NCCCC[C@H](N)C(=O)O; 12Ado = NCCCCCCCCCCCC(=O)O; Nle = CCCC[C@H](N)C(=O)O; Orn = NCCC[C@H](N)C(=O)O; Abu = CC[C@H](N)C(=O)O; PhAc = O=C(Cc1ccccc1)*; Aoc = NCCCCCCCC(=O)O

A word on the IC50: it is the point on the concentration scale where inhibition reaches its midpoint. For the molecule `CCCC[C@H](NC(=O)[C@@H](NC(=O)[C@H](CC(=O)O)NC(=O)[C@H](CCC(N)=O)NC(=O)[C@H](CC(C)C)NC(=O)[C@H](CC(C)C)NC(=O)[C@H](CCCCN)NC(=O)[C@H](CCCNC(=N)N)NC(=O)[C@H](C)NC(=O)[C@H](CO)NC(=O)[C@H](CC(C)C)NC(=O)[C@H](CCC(N)=O)NC(=O)[C@H](CC)NC(=O)[C@H](CC(C)C)NC(=O)[C@@H](NC(=O)[C@H](CCCCN)NC(=O)[C@H](CCCNC(=N)N)NC(=O)[C@H](Cc1ccc(OC)cc1)NC(=O)[C@H](CCCCNC(=N)N)NC(=O)[C@H](CC(N)=O)NC(=O)[C@@H](NC(=O)[C@H](Cc1ccc(Cl)cc1)NC(=O)[C@@H](NC(=O)[C@H](C)NC(=O)[C@H](CC(=O)O)NC(=O)[C@@H](CCCNC(=N)N)NC(=O)[C@H](Cc1ccc(O)cc1)NC(=O)CCCCCCCCCCCNC(=O)Cc1ccccc1)[C@@H](C)CC)[C@@H](C)O)C(C)C)[C@@H](C)CC)C(=O)N[C@H](CCCNC(=N)N)C(=O)N[C@@H](CCCCNC(=N)N)C(=O)NCCCCCCCC(=O)NC` [AVR-321, PhAC-Ada-Tyr-DArg-Asp-Ala-Ile-Cpa-Thr-Asn-Har-Tyr(Me)-Arg-Lys-Val-Leu-Abu-Gln-Leu-Ser-Ala-Arg-Lys-Leu-Leu-Gln-Asp-Ile-Nle-DArg-Har-Aoc-NHCH3] ({PhAc-12Ado}-Y[dR]DAI[Phe(4-Cl)]TN[hArg]Y(Me)RKVL[Abu]QLSARKLLQDI[Nle][dR][hArg][Aoc]-NHMe), in test [1], the “relative inhibitory potency in comparison to MIA-602, Stomach KATOIII” value is recorded as 1.414. The same molecule registered a 50% inhibitory concentration (IC50) in test [2] of 0.23 nM.
For the molecule `CCCC[C@H](NC(=O)[C@@H](NC(=O)[C@H](CC(=O)O)NC(=O)[C@H](CCC(N)=O)NC(=O)[C@H](CC(C)C)NC(=O)[C@H](CC(C)C)NC(=O)[C@H](CCCN)NC(=O)[C@H](Cc1c[nH]cn1)NC(=O)[C@H](C)NC(=O)[C@H](CO)NC(=O)[C@H](CC(C)C)NC(=O)[C@H](CCC(N)=O)NC(=O)[C@H](CC)NC(=O)[C@H](CC(C)C)NC(=O)[C@@H](NC(=O)[C@H](CCCN)NC(=O)[C@H](Cc1c[nH]cn1)NC(=O)[C@H](Cc1c(F)c(F)c(F)c(F)c1F)NC(=O)[C@H](CCCCNC(=N)N)NC(=O)[C@H](C)NC(=O)[C@@H](NC(=O)[C@H](Cc1ccc(Cl)cc1)NC(=O)[C@@H](NC(=O)[C@H](C)NC(=O)[C@H](CC(=O)O)NC(=O)[C@@H](CCCNC(=N)N)NC(=O)[C@H](Cc1ccc(O)cc1)NC(=O)CCCCCCCCCCCNC(=O)Cc1c(F)c(F)c(F)c(F)c1F)[C@@H](C)CC)[C@@H](C)O)C(C)C)[C@@H](C)CC)C(=O)N[C@H](CCCNC(=N)N)C(=O)N[C@@H](CCCCNC(=N)N)C(=O)NC` [AVR-542, 5FPhAC-Ada-Tyr-DArg-Asp-Ala-Ile-Cpa-Thr-Ala-Har-5FPhe-His-Orn-Val-Leu-Abu-Gln-Leu-Ser-Ala-His-Orn-Leu-Leu-Gln-Asp-Ile-Nle-DArg-Har-NHCH3] ({Phenylacetyl(2,3,4,5,6-F5)-12Ado}-Y[dR]DAI[Phe(4-Cl)]TA[hArg][Phe(F5)]H[Orn]VL[Abu]QLSAH[Orn]LLQDI[Nle][dR][hArg]-NHMe), the “relative inhibitory potency in comparison to MIA-602, Pancreatic CFPAC-1” value in test [3] is listed as 1.312. Further, in the test with HCC827 lung cancer cells, the “relative inhibitory potency in comparison to MIA-602, Lung IICC827” value is on record as 2.649.
For `CCCC[C@H](NC(=O)[C@@H](NC(=O)[C@H](CC(=O)O)NC(=O)[C@H](CCC(N)=O)NC(=O)[C@H](CC(C)C)NC(=O)[C@H](CC(C)C)NC(=O)[C@H](CCCN)NC(=O)[C@H](Cc1c[nH]cn1)NC(=O)[C@H](C)NC(=O)[C@H](CO)NC(=O)[C@H](CC(C)C)NC(=O)[C@H](CCC(N)=O)NC(=O)[C@H](CC)NC(=O)[C@H](CC(C)C)NC(=O)[C@@H](NC(=O)[C@H](CCCN)NC(=O)[C@H](Cc1c[nH]cn1)NC(=O)[C@H](Cc1c(F)c(F)c(F)c(F)c1F)NC(=O)[C@H](CCCCNC(=N)N)NC(=O)[C@H](C)NC(=O)[C@@H](NC(=O)[C@H](Cc1ccc(Cl)cc1)NC(=O)[C@@H](NC(=O)[C@H](C)NC(=O)[C@H](CC(=O)O)NC(=O)[C@@H](CCCNC(=N)N)NC(=O)[C@H](Cc1ccc(O)cc1)NC(=O)CCCCCCCCCCCNC(=O)Cc1c(F)c(F)c(F)c(F)c1F)[C@@H](C)CC)[C@@H](C)O)C(C)C)[C@@H](C)CC)C(=O)N[C@H](CCCNC(=N)N)C(=O)N[C@@H](CCCCNC(=N)N)C(=O)NCCCCCCCCCCCC(N)=O` [AVR-552, 5FPhAC-Ada-Tyr-DArg-Asp-Ala-Ile-Cpa-Thr-Ala-Har-5FPhe-His-Orn-Val-Leu-Abu-Gln-Leu-Ser-Ala-His-Orn-Leu-Leu-Gln-Asp-Ile-Nle-DArg-Har-Ada-NH2] ({Phenylacetyl(2,3,4,5,6-F5)-12Ado}-Y[dR]DAI[Phe(4-Cl)]TA[hArg][Phe(F5)]H[Orn]VL[Abu]QLSAH[Orn]LLQDI[Nle][dR][hArg][12Ado]-NH2), the “relative inhibitory potency in comparison to MIA-602, Pancreatic CFPAC-1” value in test [3] was found to be 1.57. Besides, the “relative inhibitory potency in comparison to MIA-602, Lung IICC827” value in the test on HCC827 lung cancer cells was found to be 4.376. Further, in test [2] (competitive binding, human pituitary membrane fractions), the “binding affinity to membrane receptors of human pituitary cells (in words)” value is given as “higher binding affinity in comparison to MIA-602; also recorded: highest binding affinities”. Also, in test [2] (membrane receptors on human anterior pituitary cells, mean of two to three determinations, read-out: IC50), the IC50 was determined as 0.17 nM.
`CCCC[C@H](NC(=O)[C@@H](NC(=O)[C@H](CC(=O)O)NC(=O)[C@H](CCC(N)=O)NC(=O)[C@H](CC(C)C)NC(=O)[C@H](CC(C)C)NC(=O)[C@H](CCCN)NC(=O)[C@H](Cc1c[nH]cn1)NC(=O)[C@H](C)NC(=O)[C@H](CO)NC(=O)[C@H](CC(C)C)NC(=O)[C@H](CCC(N)=O)NC(=O)[C@H](CC)NC(=O)[C@H](CC(C)C)NC(=O)[C@@H](NC(=O)[C@H](CCCN)NC(=O)[C@H](Cc1c[nH]cn1)NC(=O)[C@H](Cc1c(F)c(F)c(F)c(F)c1F)NC(=O)[C@H](CCCCNC(=N)N)NC(=O)[C@H](C)NC(=O)[C@@H](NC(=O)[C@H](Cc1ccc(Cl)cc1)NC(=O)[C@@H](NC(=O)[C@H](C)NC(=O)[C@H](CC(=O)O)NC(=O)[C@@H](CCCNC(=N)N)NC(=O)[C@H](Cc1ccc(O)cc1)NC(=O)CCCCCCCCCCCNC(=O)Cc1ccccc1)[C@@H](C)CC)[C@@H](C)O)C(C)C)[C@@H](C)CC)C(=O)N[C@H](CCCNC(=N)N)C(=O)N[C@@H](CCCCNC(=N)N)C(N)=O` [MIA-690, reference compound] ({PhAc-12Ado}-Y[dR]DAI[Phe(4-Cl)]TA[hArg][Phe(F5)]H[Orn]VL[Abu]QLSAH[Orn]LLQDI[Nle][dR][hArg]-NH2): the concentration for half-maximal inhibition (IC50) in test [2] is 0.53 nM.

Source of the values: patent US20210395327A1, “Growth Hormone-Releasing Hormone Antagonists and Uses Thereof” (United States Government As Represented By The Department …, priority 2019, published 2021).
